Data reported in BindingDB's records for doi:10.7270/Q2BC3WXH (University of Dundee, 2010).

Biological target: Carbonic anhydrase 2 (Bos taurus, UniProt P00921)
Assay: SPR biosensor assay Biacore T100
Conditions: 25 °C; for kon: pH 7.4, read-out: kon (M-1-s-1); for Kd: pH 7.4
Excerpt: SPR biosensor assay Biacore T100

Carbonic anhydrase 2, sequence (P00921 whole entry): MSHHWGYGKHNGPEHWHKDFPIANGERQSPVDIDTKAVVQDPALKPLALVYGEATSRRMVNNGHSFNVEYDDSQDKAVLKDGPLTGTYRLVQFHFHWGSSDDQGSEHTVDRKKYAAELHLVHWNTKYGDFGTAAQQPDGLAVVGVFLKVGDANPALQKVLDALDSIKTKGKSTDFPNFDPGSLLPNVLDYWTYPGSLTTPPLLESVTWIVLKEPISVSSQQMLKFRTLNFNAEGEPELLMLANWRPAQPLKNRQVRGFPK

Structure (SMILES)	kon [M⁻¹ s⁻¹]	Kd [nM]	koff (pH 7.4, read-out: koff (s-1)) [s⁻¹]
O=C1NNS(=O)(=O)c2ccccc21 [1,4-dioxo-1,2,3,4-tetrahydro-1,2,3-benzothiadiazin-1-ium-1-olate]	1.94e+06	38900	
NS(=O)(=O)c1ccc2c(c1)OCCO2 [2,3-dihydro-1,4-benzodioxine-6-sulfonamide]	109000	817	
NS(=O)(=O)c1ccc2c(c1)CCN2 [2,3-dihydro-1H-indole-5-sulfonamide]	58500	3110	
Nc1nc2ccc(S(N)(=O)=O)cc2s1 [2-amino-1,3-benzothiazole-6-sulfonamide]	19600	383	
CCCn1c(=O)[nH]c2cc(S(N)(=O)=O)ccc21 [2-oxo-1-propyl-2,3-dihydro-1H-1,3-benzodiazole-5-sulfonamide]	93500	197	
NS(=O)(=O)c1cc(Cl)cc(Cl)c1 [3,5-dichlorobenzene-1-sulfonamide]	259000	287	

Results, then the molecule that gave them:

kon [M⁻¹ s⁻¹]	Kd [nM]	koff (pH 7.4, read-out: koff (s-1)) [s⁻¹]	Structure (SMILES)
164000	35300	4.65	Cn1cnc(S(N)(=O)=O)c1 [1-methyl-1H-imidazole-4-sulfonamide]
107000	394		NS(=O)(=O)c1ccc(F)cc1F [2,4-difluorobenzene-1-sulfonamide]
240000	2180		Cc1ccccc1S(N)(=O)=O [2-methylbenzene-1-sulfonamide]
76300	96.8		Cc1c(Cl)cc(F)cc1S(N)(=O)=O [3-chloro-5-fluoro-2-methylbenzene-1-sulfonamide]
203000	10800		Nc1ccc(S(N)(=O)=O)cn1 [6-aminopyridine-3-sulfonamide]
